Measurements as given in patent US9650334B2 (AbbVie Deutschland GmbH & Co. KG, priority 2013, dated 2017).

Each compound was assayed against T1, human GlyT1c transporter (Homo sapiens, UniProt P48067) (assay: Radioligand binding assays using recombinant CHO cell membranes expressing human GlyT1). Conditions: Ki, radioligand binding to human GlyT1c transporter-expressing CHO cell membranes.
T1 sequence (P48067 1-706): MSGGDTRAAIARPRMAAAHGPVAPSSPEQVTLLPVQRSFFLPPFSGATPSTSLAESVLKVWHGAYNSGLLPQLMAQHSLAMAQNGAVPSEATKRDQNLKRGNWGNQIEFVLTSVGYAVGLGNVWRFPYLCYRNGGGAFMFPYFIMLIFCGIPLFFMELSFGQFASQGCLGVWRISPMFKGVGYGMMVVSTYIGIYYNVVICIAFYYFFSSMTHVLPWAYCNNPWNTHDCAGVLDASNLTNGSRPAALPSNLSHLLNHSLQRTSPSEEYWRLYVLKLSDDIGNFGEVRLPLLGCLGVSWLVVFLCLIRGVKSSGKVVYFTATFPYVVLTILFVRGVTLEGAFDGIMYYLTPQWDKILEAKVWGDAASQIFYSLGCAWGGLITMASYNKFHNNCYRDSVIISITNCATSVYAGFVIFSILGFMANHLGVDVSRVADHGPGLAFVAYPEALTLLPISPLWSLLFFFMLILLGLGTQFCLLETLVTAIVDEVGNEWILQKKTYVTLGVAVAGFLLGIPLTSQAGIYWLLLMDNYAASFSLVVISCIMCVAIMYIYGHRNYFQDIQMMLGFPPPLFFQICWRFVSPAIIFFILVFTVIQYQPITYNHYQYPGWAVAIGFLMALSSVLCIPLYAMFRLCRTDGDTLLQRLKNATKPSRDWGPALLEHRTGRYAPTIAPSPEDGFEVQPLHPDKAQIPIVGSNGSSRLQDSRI
For `Cn1cnc(S(=O)(=O)N2C[C@H](Nc3cccc(OC(F)(F)F)c3)[C@@H](C3OCC4(CC4)CO3)C2)c1` [Example 920, (3R,4S)-4-(5,7-dioxaspiro[2.5]oct-6-yl)-1-[(1-methyl-1H-imidazol-4-yl)sulfonyl]-N-[3-(trifluoromethoxy)phenyl]pyrrolidin-3-amine], the Ki was ≤ 10 nM. In the case of `Cn1cnc(S(=O)(=O)N2C[C@H](NCc3cccc(OC(F)(F)F)c3)[C@@H](C3OCCCO3)C2)c1` [Example 905, (3R,4S)-4-(1,3-dioxan-2-yl)-1-[(1-methyl-1H-imidazol-4-yl)sulfonyl]-N-[3-(trifluoromethoxy)benzyl]pyrrolidin-3-amine], the Ki is reported as ≤ 1000 nM. In the case of `Cn1cc(S(=O)(=O)N2CC3c4ccccc4CC3(Nc3cc(C(F)(F)F)ncn3)C2)nn1` (centres unmarked) [Example 891, 2-[(1-methyl-1H-1,2,3-triazol-4-yl)sulfonyl]-N-[6-(trifluoromethyl)pyrimidin-4-yl]-2,3,3a,8-tetrahydroindeno[1,2-c]pyrrol-8a(1H)-amine], the Ki is reported as ≤ 100 nM. With `Cn1cnc(S(=O)(=O)N2C[C@@H](c3ccccc3)[C@](CO)(NCc3ccc(C(F)(F)F)cc3)C2)c1` (relative stereo) [Example 401] the Ki was ≤ 10000 nM. `CCCCCCN[C@H]1CN(S(=O)(=O)c2cn(C)cn2)C[C@@H]1C1OCCCO1` [Example 910, (3R,4S)-4-(1,3-dioxan-2-yl)-N-hexyl-1-[(1-methyl-1H-imidazol-4-yl)sulfonyl]pyrrolidin-3-amine] was tested, and the Ki was ≤ 100 nM. With `CCCCCN(CCCCC)[C@H]1CN(S(=O)(=O)c2cn(C)cn2)C[C@@H]1C1OCCCO1` [Example 908, (3R,4S)-4-(1,3-dioxan-2-yl)-1-[(1-methyl-1H-imidazol-4-yl)sulfonyl]-N,N-dipentylpyrrolidin-3-amine] the Ki was ≤ 10000 nM. `Cn1cnc(S(=O)(=O)N2CC3CCCCC3(NCc3ccc(C(F)(F)F)cc3Cl)C2)c1` (centres unmarked) [Example 869, N-[2-chloro-4-(trifluoromethyl)benzyl]-2-[(1-methyl-1H-imidazol-4-yl)sulfonyl]octahydro-3aH-isoindol-3a-amine] was tested, and the Ki was ≤ 10 nM. For `CC(C)c1cccc(N[C@H]2CN(S(=O)(=O)c3cn(C)cn3)C[C@@H]2C2OCCCO2)c1` [Example 926, (3R,4S)-4-(1,3-dioxan-2-yl)-1-[(1-methyl-1H-imidazol-4-yl)sulfonyl]-N-[3-(propan-2-yl)phenyl]pyrrolidin-3-amine], the Ki was ≤ 10 nM. For `Cn1cnc(S(=O)(=O)N2CC(Cc3cccc(C(F)(F)F)c3)C(C3OCCCO3)C2)c1` (centres unmarked) [Example 918, 4-({3-(1,3-dioxan-2-yl)-4-[3-(trifluoromethyl)benzyl]pyrrolidin-1-yl}sulfonyl)-1-methyl-1H-imidazole], the Ki was ≤ 1000 nM. `Cn1cnc(S(=O)(=O)N2CC3CCCN(C(=O)c4cccc(C(F)(F)F)c4Cl)C3C2)c1` (centres unmarked) [Example 874, [2-chloro-3-(trifluoromethyl)phenyl]{6-[(1-methyl-1H-imidazol-4-yl)sulfonyl]octahydro-1H-pyrrolo[3,4-b]pyridin-1-yl}methanone] was tested, and the Ki was ≤ 10000 nM. With `Cn1cnc(S(=O)(=O)N2CC(Nc3cccc(OC(F)(F)F)c3)C(c3ccc(F)cn3)C2)c1` (centres unmarked) [Example 895, 4-(5-fluoropyridin-2-yl)-1-[(1-methyl-1H-imidazol-4-yl)sulfonyl]-N-[3-(trifluoromethoxy)phenyl]pyrrolidin-3-amine] the Ki was ≤ 10 nM. For `Cc1cccc(N[C@H]2CN(S(=O)(=O)c3cn(C)cn3)C[C@@H]2C2OCCCO2)c1` [Example 917, (3R,4S)-4-(1,3-dioxan-2-yl)-1-[(1-methyl-1H-imidazol-4-yl)sulfonyl]-N-(3-methylphenyl)pyrrolidin-3-amine], the Ki was ≤ 100 nM. In the case of `Cc1cccc(C(N[C@H]2CN(S(=O)(=O)c3cn(C)cn3)C[C@@H]2c2ccc(F)cc2)C(F)(F)F)c1` (stereo partly drawn) [Example 875, (3R,4S)-4-(4-fluorophenyl)-1-[(1-methyl-1H-imidazol-4-yl)sulfonyl]-N-[2,2,2-trifluoro-1-(3-methylphenyl)ethyl]pyrrolidin-3-amine], the Ki is reported as ≤ 10000 nM. In the case of `Cn1cnc(S(=O)(=O)N2CC(Nc3cccc(OC(F)(F)F)c3)C(C3CCCN(C4CC4)C3)C2)c1` (centres unmarked) [Example 641, 4-[-1-cyclopropylpiperidin-3-yl]-1-[(1-methyl-1H-imidazol-4-yl)sulfonyl]-N-[3-(trifluoromethoxy)phenyl]pyrrolidin-3-amine], the Ki is reported as ≤ 100 nM. With `Cn1cnc(S(=O)(=O)N2CC3CCCN(Cc4ccc(C(F)(F)F)cc4Cl)C3C2)c1` (centres unmarked) [Example 879, 1-[2-chloro-4-(trifluoromethyl)benzyl]-6-[(1-methyl-1H-imidazol-4-yl)sulfonyl]octahydro-1H-pyrrolo[3,4-b]pyridine] the Ki was ≤ 1000 nM. For `CCCCC1CN([C@H]2CN(S(=O)(=O)c3cn(C)cn3)C[C@@H]2c2ccc(F)cc2)C(=O)O1` (stereo partly drawn) [Example 863, 5-butyl-3-{(3R,4S)-4-(4-fluorophenyl)-1-[(1-methyl-1H-imidazol-4-yl)sulfonyl]pyrrolidin-3-yl}-1,3-oxazolidin-2-one], the Ki was ≤ 1000 nM. `Cn1cnc(S(=O)(=O)N2C[C@H](Nc3cccc(OCC(F)(F)F)c3)[C@@H](C3OCCCO3)C2)c1` [Example 899, (3R,4S)-4-(1,3-dioxan-2-yl)-1-[(1-methyl-1H-imidazol-4-yl)sulfonyl]-N-[3-(2,2,2-trifluoroethoxy)phenyl]pyrrolidin-3-amine] was tested, and the Ki was ≤ 100 nM. In the case of `Cn1cnc(S(=O)(=O)N2C[C@H](Nc3ccc(F)c(Cl)c3)[C@@H](C3OCCCO3)C2)c1` [Example 916, (3R,4S)-N-(3-chloro-4-fluorophenyl)-4-(1,3-dioxan-2-yl)-1-[(1-methyl-1H-imidazol-4-yl)sulfonyl]pyrrolidin-3-amine], the Ki is reported as ≤ 100 nM. For `Cn1cnc(S(=O)(=O)N2C[C@@H](Nc3ccc(OC(F)(F)F)c(C#N)c3)[C@H](c3ccccc3)C2)c1` (racemic) [Example 102, 5-({trans-1-[(1-methyl-1H-imidazol-4-yl)sulfonyl]-4-phenylpyrrolidin-3-yl}amino)-2-(trifluoromethoxy)benzonitrile], the Ki was ≤ 1000 nM. `Cn1cnc(S(=O)(=O)N2CC3CCCCC3(NC(=O)c3cccc(C(F)(F)F)c3Cl)C2)c1` (centres unmarked) [Example 870, 2-chloro-N-{2-[(1-methyl-1H-imidazol-4-yl)sulfonyl]octahydro-3aH-isoindol-3a-yl}-3-(trifluoromethyl)benzamide] was tested, and the Ki was ≤ 100 nM. For `Cn1cnc(S(=O)(=O)N2C[C@H](Nc3ccc(F)c(C(F)(F)F)c3)[C@@H](C3OCCCO3)C2)c1` [Example 912, (3R,4S)-4-(1,3-dioxan-2-yl)-N-[4-fluoro-3-(trifluoromethyl)phenyl]-1-[(1-methyl-1H-imidazol-4-yl)sulfonyl]pyrrolidin-3-amine], the Ki was ≤ 10 nM. With `Cn1cnc(S(=O)(=O)N2C[C@@H](Nc3ccc(F)c(F)c3)[C@H](c3ncccc3F)C2)c1` (relative stereo) [Example 766, Trans-N-(3,4-difluorophenyl)-4-(3-fluoropyridin-2-yl)-1-[(1-methyl-1H-imidazol-4-yl)sulfonyl]pyrrolidin-3-amine] the Ki was ≤ 1000 nM. With `CN1CCCCC1C1CN(S(=O)(=O)c2cn(C)cn2)CC1Nc1cccc(OC(F)(F)F)c1` (centres unmarked) [Example 898, 1-[(1-methyl-1H-imidazol-4-yl)sulfonyl]-4-(1-methylpiperidin-2-yl)-N-[3-(trifluoromethoxy)phenyl]pyrrolidin-3-amine] the Ki was ≤ 10 nM. In the case of `Cn1cnc(S(=O)(=O)N2C[C@H](Nc3cc(C(F)(F)F)c(Cl)cn3)[C@@H](C3OCCCO3)C2)c1` [Example 911, 5-chloro-N-{(3R,4S)-4-(1,3-dioxan-2-yl)-1-[(1-methyl-1H-imidazol-4-yl)sulfonyl]pyrrolidin-3-yl}-4-(trifluoromethyl)pyridin-2-amine], the Ki is reported as ≤ 10 nM. For `Cn1cnc(S(=O)(=O)N2C[C@@H](c3ccccc3)[C@](C)(NCc3ccc(C(F)(F)F)cc3Cl)C2)c1` (relative stereo) [Example 356, Trans-N-[2-chloro-4-(trifluoromethyl)benzyl]-3-methyl-1-[(1-methyl-1H-imidazol-4-yl)sulfonyl]-4-phenylpyrrolidin-3-amine], the Ki was ≤ 100 nM. For `Cn1cnc(S(=O)(=O)N2C[C@H](c3ccc(F)cc3)[C@@H](N3C(=O)Cc4ccccc43)C2)c1` [Example 883, 1-{(3R,4S)-4-(4-fluorophenyl)-1-[(1-methyl-1H-imidazol-4-yl)sulfonyl]pyrrolidin-3-yl}-1,3-dihydro-2H-indol-2-one], the Ki was ≤ 10000 nM. In the case of `Cc1cccc(CN[C@@H]2CN(S(=O)(=O)c3cn(C)cn3)C[C@H]2c2ccc(F)cc2)c1` (relative stereo) [Example 154, trans-4-(4-fluorophenyl)-N-(3-methylbenzyl)-1-[(1-methyl-1H-imidazol-4-yl)sulfonyl]pyrrolidin-3-amine], the Ki is reported as ≤ 100 nM.

Same assay, conditions: radioligand binding to human GlyT1c transporter-expressing CHO cell membranes
In the case of “Trans-N-[4-chloro-3-(trifluoromethoxy)phenyl]-1-[(1-methyl-1H-imidazol-4-yl)sulfonyl]-4-[(3S)-tetrahydro-2H-pyran-3-yl]pyrrolidin-3-amine [Example 793]”, the Ki is reported as ≤ 10000 nM. With “(3R,4S)-N-[2-chloro-4-(trifluoromethyl)benzyl]-1-[(1-methyl-1H-imidazol-4-yl)sulfonyl]-4-phenylpyrrolidin-3-amine [Example 394]” the Ki was ≤ 10 nM.
